Measured values published in the Deep4Chem optical property database.
Values joined by “and” are separate entries in the source; they are usually repeats but may differ in a detail not shown here. Equal values may be shown once.

Experiment: solvent given as SMILES

**Q.** Which fluorescence lifetime (in C1CCOC1) does the source give for Cc1cc(-c2ccc(-c3ccccc3)cc2)nc(-c2ccc(-n3c4ccccc4c4ccccc43)cc2)n1 here?
**A.** 3.36 ns

**Q.** What about the fluorescence lifetime (in CN(C)C=O) of the same molecule?
**A.** 12.2 ns

**Q.** And the fluorescence lifetime (in Cc1ccccc1)?
**A.** 1.15 ns

**Q.** What about the fluorescence lifetime (in ClC(Cl)Cl) of the same molecule?
**A.** 3.19 ns

**Q.** With CC(C)(C)c1ccc(-c2nc3c4ccccc4c4ccccc4c3n2-c2ccc(C(C)(C)C)cc2)cc1 as the molecule, how does the fluorescence lifetime (in ClCCl) read?
**A.** 6.4 ns

**Q.** For O=C1c2ccccc2C(=O)C1C1C(=O)c2c3ccccc3cc3cc4ccccc4c1c23 (centres undefined), which fluorescence lifetime (in C1CCOC1) is on record?
**A.** 13.5 ns

**Q.** And the fluorescence lifetime (in CC#N)?
**A.** 8.4 ns

**Q.** What about the fluorescence lifetime (in CCCCCC) of the same molecule?
**A.** 12.9 ns

**Q.** And the fluorescence lifetime (in Cc1ccccc1)?
**A.** 14.1 ns

**Q.** And the fluorescence lifetime (in ClCCl)?
**A.** 11 ns

**Q.** Which fluorescence lifetime (in C1CCCCC1) does the source give for COc1cc(OC)c2c(c1)C(=O)c1ccc(OC)cc1-2 here?
**A.** 4.4 ns

**Q.** And the fluorescence lifetime (in CC#N)?
**A.** 1.2 ns

**Q.** With c1ccc(-c2nc(-c3ccccc3)nc(-c3ccc(-n4c5ccc(-n6c7ccccc7c7ccccc76)cc5c5cc(-n6c7ccccc7c7ccccc76)ccc54)cc3)n2)cc1 as the molecule, how does the fluorescence lifetime (in Cc1ccccc1) read?
**A.** 6 ns

**Q.** With O=Cc1cnc(-c2c3ccccc3cc3ccccc23)nc1 as the molecule, how does the fluorescence lifetime (in CCO) read?
**A.** 2.3 ns

**Q.** What about the fluorescence lifetime (in ClCCl) of the same molecule?
**A.** 6.3 ns

**Q.** With CCn1c2ccccc2c2cc(-c3cc(-c4ccc5c(c4)c4ccccc4n5CC)ncn3)ccc21 as the molecule, how does the fluorescence lifetime (in C1CCOC1) read?
**A.** 1.86 ns

**Q.** For CCCCCCN(CCCCCC)c1ccc(C#Cc2ccc(-c3ccc(C#Cc4ccc(N(CCCCCC)CCCCCC)cc4)cc3)cc2)cc1, which fluorescence lifetime (in Cc1ccccc1) is on record?
**A.** 1 ns

**Q.** Which fluorescence lifetime (in CCCCCC) does the source give for CCc1c(C(=O)OC)c(C(=O)OC)c2ccc(-c3ccccc3)nn12 here?
**A.** 21.1 ns

**Q.** For CC1(C)c2ccccc2N(c2ccc(-c3nc(-c4ccccc4)cc(-c4ccccc4)n3)cc2)c2ccccc21, which fluorescence lifetime (in Cc1ccccc1) is on record?
**A.** 6.48 ns

**Q.** What about the fluorescence lifetime (in ClCCl) of the same molecule?
**A.** 18.2 ns

**Q.** With C(=C\c1ccnc2ccccc12)/c1c2ccccc2cc2ccccc12 as the molecule, how does the fluorescence lifetime (in CC1CCCCC1) read?
**A.** 2.6 ns

**Q.** And the fluorescence lifetime (in CC#N)?
**A.** 0.088 ns

**Q.** Which fluorescence lifetime (in C1CCCCC1) does the source give for CN(C)c1ccc2nc(-c3ccc(C=C4C(=O)c5ccccc5C4=O)cc3)sc2c1 here?
**A.** 0.41 ns

**Q.** For Cn1c(-c2ccc(-c3nc(-c4ccccc4)c(-c4ccccc4)n3C)cc2)nc(-c2ccccc2)c1-c1ccccc1, which fluorescence lifetime (in CC#N) is on record?
**A.** 1.24 ns and 1.1 ns

**Q.** Which fluorescence lifetime (in ClCCl) does the source give for CCc1c(C)[nH]c(C2=[N+]3C(=C(C)c4c(C)c(CC)c(C)n4[B-]3(F)F)c3ccccc32)c1C here?
**A.** 6.21 ns

**Q.** With c1ccc2c(c1)Oc1ccccc1N2c1ccc(-c2nnc(-c3ccc(N4c5ccccc5Oc5ccccc54)cc3)o2)cc1 as the molecule, how does the fluorescence lifetime (in Cc1ccccc1) read?
**A.** 21.2 ns

**Q.** What about the fluorescence lifetime (in O=P(c1ccccc1)(c1ccccc1)c1ccccc1Oc1ccccc1P(=O)(c1ccccc1)c1ccccc1) of the same molecule?
**A.** 11.2 ns

**Q.** For Nc1ccc(N2C(=O)c3ccc4c5ccc6c7c(ccc(c8ccc(c3c48)C2=O)c75)C(=O)N(c2ccc(O)cc2)C6=O)cc1, which fluorescence lifetime (in CN(C)C=O) is on record?
**A.** 3.1 ns

**Q.** With Cn1c(=O)c(/N=N/c2ccc(Nc3ccc([N+](=O)[O-])cc3S(=O)(=O)O)cc2)c(O)c2ccccc21 as the molecule, how does the fluorescence lifetime (in CS(C)=O) read?
**A.** 0.03 ns

**Q.** With N#C/C(=C\c1ccc(C#N)cc1)c1nc(-c2ccccc2)c(-c2ccccc2)s1 as the molecule, how does the fluorescence lifetime (in CC#N) read?
**A.** 3.2 ns

**Q.** Which fluorescence lifetime (in ClCCl) does the source give for C=CCOc1nnc(OCCC(F)(F)C(F)(F)C(F)(F)C(F)(F)C(F)(F)C(F)(F)C(F)(F)C(F)(F)F)nn1 here?
**A.** 63.4 ns

**Q.** And the fluorescence lifetime (in OCC(F)(F)F)?
**A.** 8.5 ns

**Q.** Which fluorescence lifetime (in ClC(Cl)Cl) does the source give for COc1ccc(C2=Cc3c4ccccc4c4ccccc4[n+]3[B-](F)(F)O2)cc1 here?
**A.** 1.58 ns

**Q.** Which fluorescence lifetime (in C1CCOC1) does the source give for CC(C)(C)c1ccc(/C=C/c2ccc(N(c3ccc(/C=C/c4ccc(C(C)(C)C)cc4)cc3)c3ccc(-c4nc5ccccc5nc4-c4ccc(N(c5ccc(/C=C/c6ccc(C(C)(C)C)cc6)cc5)c5ccc(/C=C/c6ccc(C(C)(C)C)cc6)cc5)cc4)cc3)cc2)cc1 here?
**A.** 2.3 ns

**Q.** For O=S(=O)([O-])c1cc(S(=O)(=O)Cl)ccc1C1=c2cc3c4c(c2Oc2c1cc1c5c2CCCN5CCC1)CCC[N+]=4CCC3, which fluorescence lifetime (in O) is on record?
**A.** 4.2 ns

**Q.** Which fluorescence lifetime (in CC(C)=O) does the source give for CS1(C)C(/C=C/C2=C(c3ccc(C(=O)O)cc3)C(=C/C=C3/N(CCCCS(=O)(=O)[O-])c4ccccc4S3(C)C)/CCC2)=[N+](CCCCS(=O)(=O)[O-])c2ccccc21 here?
**A.** 1.08 ns

**Q.** And the fluorescence lifetime (in CCO)?
**A.** 0.93 ns

**Q.** And the fluorescence lifetime (in CO)?
**A.** 0.72 ns

**Q.** And the fluorescence lifetime (in CS(C)=O)?
**A.** 1.26 ns

**Q.** And the fluorescence lifetime (in ClC(Cl)Cl)?
**A.** 1.31 ns

**Q.** What about the fluorescence lifetime (in ClCCl) of the same molecule?
**A.** 1.19 ns

**Q.** And the fluorescence lifetime (in O)?
**A.** 0.33 ns

**Q.** With Oc1cccc2ccccc12 as the molecule, how does the fluorescence lifetime (in C1CCCCC1) read?
**A.** 15 ns

**Q.** For CCCCCCC(CCCCCC)N1C(=O)c2cccc3c(-c4ccc(N(C)C)cc4)ccc(c23)C1=O, which fluorescence lifetime (in CCCCCC) is on record?
**A.** 3.47 ns

**Q.** And the fluorescence lifetime (in CCCCCCCCCCCCCC)?
**A.** 3.61 ns

**Q.** What about the fluorescence lifetime (in CCCCCCCCCCCO) of the same molecule?
**A.** 5.51 ns

**Q.** And the fluorescence lifetime (in CCCCO)?
**A.** 3.5 ns

**Q.** What about the fluorescence lifetime (in Cc1ccccc1) of the same molecule?
**A.** 5.12 ns

**Q.** And the fluorescence lifetime (in ClC(Cl)Cl)?
**A.** 6.99 ns

**Q.** With O=C1c2cccc3cc4ccccc4c(c23)C(=O)N1Cc1ccccn1 as the molecule, how does the fluorescence lifetime (in CCO) read?
**A.** 15.2 ns

**Q.** For CCn1c2ccccc2c2cc(C#Cc3cc(C#Cc4ccc5c(c4)c4ccccc4n5CC)nc(S(C)(=O)=O)n3)ccc21, which fluorescence lifetime (in C1CCOC1) is on record?
**A.** 4.22 ns

**Q.** Which fluorescence lifetime (in ClCCl) does the source give for CCN(CC)c1ccc2c(c1)oc(=O)c1cnc3c(c(C)nn3-c3ccccc3)c12 here?
**A.** 3.34 ns

**Q.** Which results are given for CCCCCCC(CCCCCC)N1C(=O)c2cccc3c(-c4ccc(OC)c5ccccc45)ccc(c23)C1=O?
**A.** fluorescence lifetime (in CCCCCC): 1.7 ns; fluorescence lifetime (in CCCCCCCCCCCCCC): 1.83 ns; fluorescence lifetime (in CCCCCCCCCCCO): 4.85 ns; fluorescence lifetime (in CCCCO): 1.8 ns; fluorescence lifetime (in CN(C)C=O): 3.85 ns; fluorescence lifetime (in Cc1ccccc1): 1.53 ns; fluorescence lifetime (in ClC(Cl)Cl): 4.07 ns

**Q.** With FC(F)(F)c1ccc(-c2ccc(-c3cc(-c4ccccn4)nc(-c4ccccn4)c3)cc2)cc1 as the molecule, how does the fluorescence lifetime (in ClCCl) read?
**A.** 1.48 ns

**Q.** For Cn1cc(-c2nc3ccccc3nc2/C=C/N2CCCC2)c2ccccc21, which fluorescence lifetime (in C1CCCCC1) is on record?
**A.** 1.27 ns

**Q.** And the fluorescence lifetime (in C1CCOC1)?
**A.** 5.12 ns

**Q.** What about the fluorescence lifetime (in CC#N) of the same molecule?
**A.** 6.75 ns

**Q.** And the fluorescence lifetime (in CC(C)=O)?
**A.** 6.42 ns

**Q.** And the fluorescence lifetime (in CCO)?
**A.** 0.75 ns

**Q.** What about the fluorescence lifetime (in CO) of the same molecule?
**A.** 0.19 ns

**Q.** And the fluorescence lifetime (in CS(C)=O)?
**A.** 7.19 ns

**Q.** And the fluorescence lifetime (in Cc1ccccc1)?
**A.** 3.62 ns

**Q.** And the fluorescence lifetime (in ClCCl)?
**A.** 7.01 ns
